Experimental findings from patent publication US9376425B2, “Heterocyclic compounds as MDM2 inhibitors for the treatment of cancer” (AMGEN INC., priority 2011, dated 2016) are described below.

A value given as a limit tells only on which side of the number the result lay.

The target of the test is T1, human MDM2 (GST-hMDM2 1-188), interaction with biotinylated-p53 (1-83) (Homo sapiens, UniProt Q00987).
T1 construct: Amino acid residues 1-188 of human MDM2 were expressed; made in house; host or cells: Escherichia coli
T1 sequence (Q00987 1-188): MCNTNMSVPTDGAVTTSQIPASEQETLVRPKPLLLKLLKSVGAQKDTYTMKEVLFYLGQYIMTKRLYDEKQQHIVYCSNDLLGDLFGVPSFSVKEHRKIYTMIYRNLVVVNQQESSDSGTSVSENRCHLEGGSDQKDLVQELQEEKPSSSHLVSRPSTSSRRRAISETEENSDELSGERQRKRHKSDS
Briefly: improved HTRF assay (HTRF2 assay), inhibition of HDM2-p53 interaction. Type of test: binding. Particulars: 0.2 nM GST-hMDM2, 0.5 nM biotinylated-p53, 100 mM KF. The essentials:
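GST-hMDM2 preincubated 20 min at RT with serially diluted compound, then biotinylated p53 (1-83, E. coli) added for 60 min. Detection with SA-XLent, anti-GST cryptate and KF, equilibrated >4 h; final DMSO 2%. TR-FRET read; % inhibition calculated relative to nutlin-3.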
Background: In TR-FRET formats the signal depends on donor and acceptor labels being close together.
As for `CC[C@@H](CS(=O)(=O)[C@H](C)C(C)C)N1C(=O)[C@H](CC(=O)O)O[C@H](c2cccc(Cl)c2)[C@H]1c1ccc(Cl)cc1` (single isomer, unassigned) [Example 285], the IC50 (commonly the point on the concentration scale where inhibition reaches its midpoint) was found to be 9 nM. With `CC[C@@H](CN(c1ccccc1F)S(=O)(=O)C1CC1)N1C(=O)[C@@H]([C@@H](C)C(=O)O)O[C@H](c2cccc(Cl)c2)[C@H]1c1ccc(Cl)cc1` (single isomer, unassigned) [Example 252], the 50% inhibitory concentration (IC50) is 1 nM. Compared with the last molecule, the IC50 is about 9-fold lower. Regarding `CC[C@@H](CS(=O)(=O)[C@H](C)C(C)C)N1C(=O)[C@H](CC(=O)O)O[C@H](c2cccc(Cl)c2)[C@H]1c1ccc(Cl)cc1` (single isomer, unassigned) [Example 282], the IC50 was found to be 2 nM. `CC[C@@H](CS(=O)(=O)CCN(C)C)N1C(=O)[C@@H](CC(=O)O)O[C@H](c2cccc(Cl)c2)[C@H]1c1ccc(Cl)cc1` (single isomer, unassigned) [Example 247, 2-((2R,5R,6R)-6-(3-chlorophenyl)-5-(4-chlorophenyl)-4-((S)-1-((2-(dimethylamino)ethyl)sulfonyl)butan-2-yl)-3-oxomorpholin-2-yl)acetic acid or 2-((2S,5R,6R)-6-(3-chlorophenyl)-5-(4-chlorophenyl)-4-((S)-1-((2-(dimethylamino)ethyl)sulfonyl)butan-2-yl)-3-oxomorpholin-2-yl)acetic acid] returned an IC50 of 3 nM. Compared with the last molecule, the IC50 is about 1.5-fold higher. The molecule `C[C@@H]1CCCN1S(=O)(=O)C[C@H](C1CC1)N1C(=O)[C@@H](CC(=O)O)O[C@H](c2cccc(Cl)c2)[C@H]1c1ccc(Cl)cc1` (single isomer, unassigned) [Example 305, 2-((2R,5R,6R)-6-(3-Chlorophenyl)-5-(4-chlorophenyl)-4-((S)-1-cyclopropyl-2-(((R)-2-methylpyrrolidin-1-yl)sulfonyl)ethyl)-3-oxomorpholin-2-yl)acetic acid or 2-((2S,5R,6R)-6-(3-chlorophenyl)-5-(4-chlorophenyl)-4-((S)-1-cyclopropyl-2-(((R)-2-methylpyrrolidin-1-yl)sulfonyl)ethyl)-3-oxomorpholin-2-yl)acetic acid] returned an IC50 below 1 nM. Molecule `CC[C@@H](CN(c1ccccc1F)S(=O)(=O)C1CC1)N1C(=O)[C@@H](CCC(=O)O)O[C@H](c2cccc(Cl)c2)[C@H]1c1ccc(Cl)cc1` (single isomer, unassigned) [Example 262, 3-((2R,5R,6R)-6-(3-chlorophenyl)-5-(4-chlorophenyl)-4-((S)-1-(N-(2-fluorophenyl)cyclopropanesulfonamido)butan-2-yl)-3-oxomorpholin-2-yl)propanoic acid or 3-((2S,5R,6R)-6-(3-chlorophenyl)-5-(4-chlorophenyl)-4-((S)-1-(N-(2-fluorophenyl)cyclopropanesulfonamido)butan-2-yl)-3-oxomorpholin-2-yl)propanoic acid] had an IC50 of 2 nM.

The molecule `CC[C@@H](CS(=O)(=O)C(C)(C)C)N1C(=O)[C@@H](CC(=O)O)O[C@H](c2cccc(Cl)c2)[C@H]1c1ccc(Cl)s1` (single isomer, unassigned) [Example 219, 2-((2R,5S,6R)-4-((S)-1-(tert-butylsulfonyl)butan-2-yl)-6-(3-chlorophenyl)-5-(5-chlorothiophen-2-yl)-3-oxomorpholin-2-yl)acetic acid or 2-((2S,5S,6R)-4-((S)-1-(tert-butylsulfonyl)butan-2-yl)-6-(3-chlorophenyl)-5-(5-chlorothiophen-2-yl)-3-oxomorpholin-2-yl)acetic acid] registered a concentration for half-maximal inhibition (IC50) of 1 nM. Then `CC(C)(C)S(=O)(=O)C[C@H](C1CC1)N1C(=O)[C@@H](CC(=O)Nc2ccccc2F)O[C@H](c2cccc(Cl)c2)[C@H]1c1ccc(Cl)cc1` (single isomer, unassigned) [Example 353, 2-((2R,5R,6R)-4-((S)-2-(tert-Butylsulfonyl)-1-cyclopropylethyl)-6-(3-chlorophenyl)-5-(4-chlorophenyl)-3-oxomorpholin-2-yl)-N-(2-fluorophenyl)acetamide or 2-((2S,5R,6R)-4-((S)-2-(tert-butylsulfonyl)-1-cyclopropylethyl)-6-(3-chlorophenyl)-5-(4-chlorophenyl)-3-oxomorpholin-2-yl)-N-(2-fluorophenyl)acetamide], with 9 nM; and `CC[C@@H](CN(c1ncccc1F)S(=O)(=O)C1CC1)N1C(=O)[C@@H](CC(=O)O)O[C@H](c2cccc(Cl)c2)[C@H]1c1ccc(Cl)cc1` (single isomer, unassigned) [Example 176, 2-((2R,5R,6R)-6-(3-chlorophenyl)-5-(4-chlorophenyl)-4-((S)-1-(N-(3-fluoropyridin-2-yl)cyclopropanesulfonamido)butan-2-yl)-3-oxomorpholin-2-yl)acetic acid or 2-((2S,5R,6R)-6-(3-chlorophenyl)-5-(4-chlorophenyl)-4-((S)-1-(N-(3-fluoropyridin-2-yl)cyclopropanesulfonamido)butan-2-yl)-3-oxomorpholin-2-yl)acetic acid], with below 1 nM; and `CC(C)(O)CS(=O)(=O)C[C@H](C1CC1)N1C(=O)[C@@H](CC(=O)O)O[C@H](c2cccc(Cl)c2)[C@H]1c1ccc(Cl)cc1` (single isomer, unassigned) [Example 288, 2-((2R,5R,6R)-6-(3-Chlorophenyl)-5-(4-chlorophenyl)-4-((S)-1-cyclopropyl-2-((2-hydroxy-2-methylpropyl)sulfonyl)ethyl)-3-oxomorpholin-2-yl)acetic acid or 2-((2S,5R,6R)-6-(3-chlorophenyl)-5-(4-chlorophenyl)-4-((S)-1-cyclopropyl-2-((2-hydroxy-2-methylpropyl)sulfonyl)ethyl)-3-oxomorpholin-2-yl)acetic acid], with below 1 nM.

The molecule `CC[C@@H](CS(=O)(=O)C(C)(C)C)N1C(=O)[C@@H](C[C@@H](O)CO)O[C@H](c2cccc(Cl)c2)[C@H]1c1ccc(Cl)cc1` (single isomer, unassigned) [Example 372] yielded an IC50 of 67 nM.

Molecule `CC[C@@H](CS(=O)(=O)C(C)(C)C)N1C(=O)[C@@H](CC(=O)O)O[C@H](c2cc(F)cc(Cl)c2)[C@H]1c1ccc(Cl)c(F)c1` (single isomer, unassigned) [Example 425, 2-((2R,5R,6R)-4-((S)-1-(tert-Butylsulfonyl)butan-2-yl)-5-(4-chloro-3-fluorophenyl)-6-(3-chloro-5-fluorophenyl)-3-oxomorpholin-2-yl)acetic acid or 2-((2S,5R,6R)-4-((S)-1-(tert-butylsulfonyl)butan-2-yl)-5-(4-chloro-3-fluorophenyl)-6-(3-chloro-5-fluorophenyl)-3-oxomorpholin-2-yl)acetic acid] yielded a half-inhibitory concentration (IC50) below 1 nM. `CC(C)(C)S(=O)(=O)C[C@H](C1CC1)N1C(=O)[C@@H](Cc2cnn[nH]2)O[C@H](c2cccc(Cl)c2)[C@H]1c1ccc(Cl)cc1` (single isomer, unassigned) [Example 386, (2R,5R,6R)-2-((1H-1,2,3-Triazol-5-yl)methyl)-4-((S)-2-(tert-butylsulfonyl)-1-cyclopropylethyl)-6-(3-chlorophenyl)-5-(4-chlorophenyl)morpholin-3-one or (2S,5R,6R)-2-((1H-1,2,3-triazol-5-yl)methyl)-4-((S)-2-(tert-butylsulfonyl)-1-cyclopropylethyl)-6-(3-chlorophenyl)-5-(4-chlorophenyl)morpholin-3-one] gave an IC50 of 13 nM. Then `CC[C@@H](CS(=O)(=O)C(C)(C)CC)N1C(=O)[C@H](CC(=O)O)O[C@H](c2cccc(Cl)c2)[C@H]1c1ccc(Cl)cc1` (single isomer, unassigned) [Example 123, 2-((2S,5R,6R)-6-(3-Chlorophenyl)-5-(4-chlorophenyl)-3-oxo-4-((S)-1-(tert-pentylsulfonyl)butan-2-yl)morpholin-2-yl)acetic acid or 2-((2R,5R,6R)-6-(3-Chlorophenyl)-5-(4-chlorophenyl)-3-oxo-4-((S)-1-(tert-pentylsulfonyl)butan-2-yl)morpholin-2-yl)acetic acid], with 1 nM; and `CC[C@@H](CCS(=O)(=O)C(C)(C)C)N1C(=O)[C@@H](CC(=O)O)O[C@H](c2cccc(Cl)c2)[C@H]1c1ccc(Cl)cc1` (single isomer, unassigned) [Example 221, 2-((2R,5R,6R)-4-((S)-1-(tert-butylsulfonyl)pentan-3-yl)-6-(3-chlorophenyl)-5-(4-chlorophenyl)-3-oxomorpholin-2-yl)acetic acid or 2-((2S,5R,6R)-4-((S)-1-(tert-butylsulfonyl)pentan-3-yl)-6-(3-chlorophenyl)-5-(4-chlorophenyl)-3-oxomorpholin-2-yl)acetic acid], with 12 nM. With `CC[C@@H](CS(=O)(=O)C(C)(C)C)N1C(=O)[C@@H](C[C@@H](O)CO)O[C@H](c2cccc(Cl)c2)[C@H]1c1ccc(Cl)cc1` (single isomer, unassigned) [Example 374] the figure was 19 nM; with `CC1(C)CCCN1S(=O)(=O)C[C@H](C1CC1)N1C(=O)[C@@H](CC(=O)O)O[C@H](c2cccc(Cl)c2)[C@H]1c1ccc(Cl)cc1` (single isomer, unassigned) [Example 306, 2-((2R,5R,6R)-6-(3-Chlorophenyl)-5-(4-chlorophenyl)-4-((S)-1-cyclopropyl-2-((2,2-dimethylpyrrolidin-1-yl)sulfonyl)ethyl)-3-oxomorpholin-2-yl)acetic acid or 2-((2R,5R,6R)-6-(3-chlorophenyl)-5-(4-chlorophenyl)-4-((S)-1-cyclopropyl-2-((2,2-dimethylpyrrolidin-1-yl)sulfonyl)ethyl)-3-oxomorpholin-2-yl)acetic acid], below 1 nM.
